Patent US9351974B2, “Substituted pteridinones for the treatment of cancer” (OSI Pharmaceuticals, LLC, priority 2011, dated 2016)

Each compound was assayed against T1, His-tagged full-length RSK2 (RPS6KA3) (Homo sapiens, UniProt P51812) (assay: RSK2 Omnia Assay for compound IC50 determination). Settings: ATP 15 μM, n=2, read-out: Mean RSK2 Biochem IC50.
T1 construct: His-tagged full-length RSK2 (RPS6KA3, Invitrogen PV3323); His; purchased Invitrogen PV3323
T1 sequence (P51812 whole entry): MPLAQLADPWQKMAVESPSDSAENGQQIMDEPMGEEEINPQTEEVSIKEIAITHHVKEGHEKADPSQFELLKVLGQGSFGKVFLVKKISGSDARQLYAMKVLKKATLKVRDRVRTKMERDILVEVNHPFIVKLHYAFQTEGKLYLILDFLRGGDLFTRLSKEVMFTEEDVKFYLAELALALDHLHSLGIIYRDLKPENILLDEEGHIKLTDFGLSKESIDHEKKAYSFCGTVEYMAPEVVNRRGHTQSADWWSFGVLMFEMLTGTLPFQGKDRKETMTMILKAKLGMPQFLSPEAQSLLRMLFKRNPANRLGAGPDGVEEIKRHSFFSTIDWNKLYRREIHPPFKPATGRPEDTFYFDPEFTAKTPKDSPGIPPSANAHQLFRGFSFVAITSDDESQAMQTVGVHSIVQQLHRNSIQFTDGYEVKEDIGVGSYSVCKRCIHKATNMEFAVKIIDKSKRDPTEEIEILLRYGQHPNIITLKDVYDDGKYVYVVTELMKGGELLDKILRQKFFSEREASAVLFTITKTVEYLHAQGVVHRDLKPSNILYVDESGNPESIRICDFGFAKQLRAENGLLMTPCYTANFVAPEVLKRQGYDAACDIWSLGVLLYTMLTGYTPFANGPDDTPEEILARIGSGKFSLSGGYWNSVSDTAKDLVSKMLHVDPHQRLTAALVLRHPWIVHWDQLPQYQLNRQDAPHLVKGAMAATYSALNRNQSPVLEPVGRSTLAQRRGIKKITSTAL
Type: biochemical
How it was run: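 Initial-rate slopes from continuous kinetic reads were fitted to a four-parameter equation for IC50 (n=2). Ki was then derived by Cheng-Prusoff assuming ATP-competitive inhibition. Reactions contained 15 μM ATP (Km 16.3 μM), 5 μM Omnia ST Peptide 6, and […] in 50 mM HEPES pH 7.5, 10 mM MgCl2, 1 mM DTT, 1% DMSO. Compounds spanned 11 threefold steps, […] final.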
With `C[C@@H]1C(=O)N(c2ccc(N3CCN(C)CC3)nc2)c2cnc(Nc3cc(F)c4[nH]ncc4c3)nc2N1[C@H]1CC[C@H](C)CC1` [compound 242, (7R)-2-[(7-fluoro-1H-indazol-5-yl)amino]-7-methyl-8-(trans-4-methylcyclohexyl)-5-[6-(4-methylpiperazin-1-yl)pyridin-3-yl]-7,8-dihydropteridin-6(5H)-one] the IC50 was ≤ 100 nM.
For `C[C@@H]1C(=O)N(c2cccc(C#N)c2)c2cnc(Nc3ccc4c(c3)CC(=O)N4)nc2N1C1CCCCC1` [Example 51, 3-[(7R)-8-cyclohexyl-7-methyl-6-oxo-2-[(2-oxo-2,3-dihydro-1H-indol-5-yl)amino]-7,8-dihydropteridin-5(6H)-yl]benzonitrile], the IC50 was ≤ 100 nM.
In the case of `COc1ccc(N2C(=O)[C@@H](C)N([C@H]3CC[C@H](C)CC3)c3nc(Nc4cc(F)c5[nH]ncc5c4)ncc32)cc1OC` [compound 239, (7R)-5-(3,4-dimethoxyphenyl)-2-[(7-fluoro-1H-indazol-5-yl)amino]-7-methyl-8-(trans-4-methylcyclohexyl)-7,8-dihydropteridin-6(5H)-one], the IC50 is reported as ≤ 100 nM.
For “(7R)-8-cyclohexyl-2-(1H-indazol-5-ylamino)-7-methyl-5-[4-(morpholin-4-yl)phenyl]-7,8-dihydropteridin-6(5H)-one [compound 126]”, the IC50 was ≤ 100 nM.
With `COc1ccc(N2C(=O)[C@@H](C)N(C3CCCCC3)c3nc(Nc4ccc(C(=O)O)cc4)ncc32)cc1OC` [compound 148, 4-{[(7R)-8-cyclohexyl-5-(3,4-dimethoxyphenyl)-7-methyl-6-oxo-5,6,7,8-tetrahydropteridin-2-yl]amino}benzoic acid] the IC50 was ≤ 100 nM.
In the case of `C[C@@H]1C(=O)N(c2cccc(C#N)c2)c2cnc(Nc3cc(F)c4[nH]c(=O)oc4c3)nc2N1C1CCCCC1` [compound 169, 3-[(7R)-8-cyclohexyl-2-[(4-fluoro-2-oxo-2,3-dihydro-1,3-benzoxazol-6-yl)amino]-7-methyl-6-oxo-7,8-dihydropteridin-5(6H)-yl]benzonitrile], the IC50 is reported as ≤ 100 nM.
`COc1ccc(N2C(=O)[C@@H](C)N(C3CCC(F)(F)CC3)c3nc(Nc4cnc5[nH]ncc5c4)ncc32)cc1C#N` [compound 279, 5-[(7R)-8-(4,4-difluorocyclohexyl)-7-methyl-6-oxo-2-(1H-pyrazolo[3,4-b]pyridin-5-ylamino)-7,8-dihydropteridin-5(6H)-yl]-2-methoxybenzonitrile] was tested, and the IC50 was ≤ 100 nM.
`C[C@@H]1C(=O)N(c2cccc(C#N)c2)c2cnc(Nc3ccc4[nH]ncc4c3)nc2N1C1CCOCC1` [compound 184, 3-[(7R)-2-(1H-indazol-5-ylamino)-7-methyl-6-oxo-8-(tetrahydro-2H-pyran-4-yl)-7,8-dihydropteridin-5(6H)-yl]benzonitrile] was tested, and the IC50 was ≤ 100 nM.
With `COc1cccc(N2c3nc(Nc4cc(F)c5[nH]ncc5c4)ncc3N(c3cccc(C#N)c3)C(=O)[C@H]2C)c1` [compound 181, 3-[(7R)-2-[(7-fluoro-1H-indazol-5-yl)amino]-8-(3-methoxyphenyl)-7-methyl-6-oxo-7,8-dihydropteridin-5(6H)-yl]benzonitrile] the IC50 was ≤ 100 nM.
`CNS(=O)(=O)c1cccc(N2C(=O)[C@@H](C)N(C3CCCCC3)c3nc(Nc4ccc5[nH]ncc5c4)ncc32)c1` [Example 42, 3-[(7R)-8-cyclohexyl-2-(1H-indazol-5-ylamino)-7-methyl-6-oxo-7,8-dihydropteridin-5(6H)-yl]-N-methylbenzenesulfonamide] was tested, and the IC50 was ≤ 100 nM.
In the case of `COc1ccc(N2C(=O)[C@@H](C)N(C3CCCCC3)c3nc(Nc4ccc5[nH]ncc5c4)ncc32)cc1OC` [compound 111, (7R)-8-cyclohexyl-5-(3,4-dimethoxyphenyl)-2-(1H-indazol-5-ylamino)-7-methyl-7,8-dihydropteridin-6(5H)-one], the IC50 is reported as ≤ 100 nM.
In the case of `C[C@@H]1C(=O)N(c2ccc(N3CCN(C)CC3)nc2)c2cnc(Nc3cc(F)c4[nH]ncc4c3)nc2N1C1CCOCC1` [compound 193, (7R)-2-[(7-fluoro-1H-indazol-5-yl)amino]-7-methyl-5-[6-(4-methylpiperazin-1-yl)pyridin-3-yl]-8-(tetrahydro-2H-pyran-4-yl)-7,8-dihydropteridin-6(5H)-one], the IC50 is reported as ≤ 100 nM.
With `CC1C(=O)N(c2ccccc2)c2cnc(Nc3ccc4c(c3)CC(=O)N4)nc2N1C1CCCC1` (centres unmarked) [Example 65, 8-cyclopentyl-7-methyl-2-[(2-oxo-2,3-dihydro-1H-indol-5-yl)amino]-5-phenyl-7,8-dihydropteridin-6(5H)-one] the IC50 was ≤ 100 nM.
For `C[C@@H]1C(=O)N(c2ccc(C#N)cc2)c2cnc(Nc3ccc4[nH]ncc4c3)nc2N1C1CCCCC1` [Example 19, 4-[(7R)-8-cyclohexyl-2-(1H-indazol-5-ylamino)-7-methyl-6-oxo-7,8-dihydropteridin-5(6H)-yl]benzonitrile], the IC50 was ≤ 100 nM.
For `C[C@@H]1C(=O)N(c2ccc(NS(C)(=O)=O)cc2)c2cnc(Nc3ccc4[nH]ncc4c3)nc2N1C1CCCCC1` [Example 47, N-{4-[(7R)-8-cyclohexyl-2-(1H-indazol-5-ylamino)-7-methyl-6-oxo-7,8-dihydropteridin-5(6H)-yl]phenyl}methanesulfonamide], the IC50 was ≤ 100 nM.
With `C[C@@H]1C(=O)N(c2cccc(C#N)c2)c2cnc(Nc3cc(F)c4[nH]ncc4c3F)nc2N1C1CCCCC1` [compound 130, 3-[(7R)-8-cyclohexyl-2-[(4,7-difluoro-1H-indazol-5-yl)amino]-7-methyl-6-oxo-7,8-dihydropteridin-5(6H)-yl]benzonitrile] the IC50 was ≤ 100 nM.
Work on `C[C@H]1C(=O)N(c2ccccc2)c2cnc(Nc3ccc4[nH]ncc4c3)nc2N1C1CCCCC1` [Example 62, (7S)-8-cyclohexyl-2-(1H-indazol-5-ylamino)-7-methyl-5-phenyl-7,8-dihydropteridin-6(5H)-one] yielded an IC50 of 100 to 1000 nM.
With `CC[C@@H]1C(=O)N(c2ccc(N(C)C)nc2)c2cnc(Nc3cc(F)c4[nH]ncc4c3)nc2N1C1CCCCC1` [compound 293, (7R)-8-cyclohexyl-5-[6-(dimethylamino)pyridin-3-yl]-7-ethyl-2-[(7-fluoro-1H-indazol-5-yl)amino]-7,8-dihydropteridin-6(5H)-one] the IC50 was ≤ 100 nM.
`CC(C)N1c2nc(Nc3ccc4c(c3)CC(=O)N4)ncc2N(c2ccccc2)C(=O)C1C` (centres unmarked) [Example 94, 7-methyl-2-[(2-oxo-2,3-dihydro-1H-indol-5-yl)amino]-5-phenyl-8-(propan-2-yl)-7,8-dihydropteridin-6(5H)-one] gave an IC50 of 100 to 1000 nM.
`CC(C)Oc1ccc(N2C(=O)[C@@H](C)N(C3CCOCC3)c3nc(Nc4cc(F)c5[nH]c(=O)oc5c4)ncc32)cc1C#N` [compound 205, 5-[(7R)-2-[(4-fluoro-2-oxo-2,3-dihydro-1,3-benzoxazol-6-yl)amino]-7-methyl-6-oxo-8-(tetrahydro-2H-pyran-4-yl)-7,8-dihydropteridin-5(6H)-yl]-2-(propan-2-yloxy)benzonitrile] was tested, and the IC50 was ≤ 100 nM.
`CC(C)Oc1ccc(N2C(=O)[C@@H](C)N(C3CCC(F)(F)CC3)c3nc(Nc4cnc5[nH]ncc5c4)ncc32)cc1C#N` [compound 286, 5-[(7R)-8-(4,4-difluorocyclohexyl)-7-methyl-6-oxo-2-(1H-pyrazolo[3,4-b]pyridin-5-ylamino)-7,8-dihydropteridin-5(6H)-yl]-2-(propan-2-yloxy)benzonitrile] showed an IC50 of 100 to 1000 nM.
With `C[C@@H]1C(=O)N(c2cccc(C#N)c2)c2cnc(Nc3ccc4c(c3)CNC4=O)nc2N1C1CCCCC1` [compound 161] the IC50 was ≤ 100 nM.
In the case of `CC[C@@H]1C(=O)N(c2cccc(C#N)c2)c2cnc(Nc3ccc4[nH]nc(F)c4c3)nc2N1C1CCCCC1` [compound 295, 3-[(7R)-8-cyclohexyl-7-ethyl-2-[(3-fluoro-1H-indazol-5-yl)amino]-6-oxo-7,8-dihydropteridin-5(6H)-yl]benzonitrile], the IC50 is reported as ≤ 100 nM.
For `COc1ccc(N2c3nc(Nc4cc(F)c5[nH]ncc5c4)ncc3N(c3cccc(C#N)c3)C(=O)[C@H]2C)cc1` [compound 182, 3-[(7R)-2-[(7-fluoro-1H-indazol-5-yl)amino]-8-(4-methoxyphenyl)-7-methyl-6-oxo-7,8-dihydropteridin-5(6H)-yl]benzonitrile], the IC50 was ≤ 100 nM.
With `CC(C)CCN1c2nc(Nc3cc(F)c4[nH]c(=O)oc4c3)ncc2N(c2cccc(C#N)c2)C(=O)[C@H]1C` [Example 90, 3-[(7R)-2-[(4-fluoro-2-oxo-2,3-dihydro-1,3-benzoxazol-6-yl)amino]-7-methyl-8-(3-methylbutyl)-6-oxo-7,8-dihydropteridin-5(6H)-yl]benzonitrile] the IC50 was ≤ 100 nM.
For `COc1ccc(N2C(=O)[C@@H](C)N(C3CCOCC3)c3nc(Nc4cc(F)c5[nH]ncc5c4)ncc32)cn1` [compound 192, (7R)-2-[(7-fluoro-1H-indazol-5-yl)amino]-5-(6-methoxypyridin-3-yl)-7-methyl-8-(tetrahydro-2H-pyran-4-yl)-7,8-dihydropteridin-6(5H)-one], the IC50 was ≤ 100 nM.
With `C[C@@H]1C(=O)N(c2ccc(N3CCCC3)nc2)c2cnc(Nc3cc(F)c4[nH]ncc4c3)nc2N1C1CCC(C)(C)CC1` [Example 214, (7R)-8-(4,4-dimethylcyclohexyl)-2-[(7-fluoro-1H-indazol-5-yl)amino]-7-methyl-5-[6-(pyrrolidin-1-yl)pyridin-3-yl]-7,8-dihydropteridin-6(5H)-one] the IC50 was ≤ 100 nM.
In the case of `C[C@@H]1C(=O)N(c2ccc(F)cc2)c2cnc(Nc3ccc4[nH]ncc4c3)nc2N1C1CCCCC1` [Example 24, (7R)-8-cyclohexyl-5-(4-fluorophenyl)-2-(1H-indazol-5-ylamino)-7-methyl-7,8-dihydropteridin-6(5H)-one], the IC50 is reported as ≤ 100 nM.
For `C[C@@H]1C(=O)N(c2cc(F)cc(F)c2)c2cnc(Nc3ccc4[nH]ncc4c3)nc2N1C1CCCCC1` [compound 95, (7R)-8-cyclohexyl-5-(3,5-difluorophenyl)-2-(1H-indazol-5-ylamino)-7-methyl-7,8-dihydropteridin-6(5H)-one], the IC50 was ≤ 100 nM.
